The values that follow come from article PMC7112772 (Journal of Virological Methods, 2005).

A short description of data set [1]: in vitro. As to conditions: pig.
Data set [2] concerns SARS-CoV. As to conditions: for EC50: read-out: SARS-CoV EC50.
Data set [3] deals with SARS-CoV. The data set is described as follows: microbe, parasite or virus in culture. As to conditions: Severe acute respiratory syndrome coronavirus, 120 h, read-out: SARS-CoV EC50.
Data set [4] in a line: in vitro. Particulars: African monkey.
For another data set, the system named is TGEV. Kind of data set: microbe, parasite or virus in culture. The data set is classed as cell-based, strain purdue112 (porcine coronavirus). As to conditions: read-out: TGEV EC50.

Where two headings read alike, the source gives them in different places.

Regarding `O=C(O)C1=CC(=C(c2ccc(O)c(C(=O)O)c2)c2ccc(O)c(C(=O)O)c2)C=CC1=O` [ATA, aurintricarboxylic acid], the CC50 was 56.9 µM in “in vitro [1]” and 9.19 µM in “in vitro [4]”. Besides, the “SI SARS CC50/EC50” value in the data set with SARS-CoV [2] is under 1.00. Further, the EC50 (as a rule, the concentration at which the effect is half-maximal) in the data set with SARS-CoV [3] is over 9.19 µM; in the data set with TGEV (Alphacoronavirus 1, 120 h) it was over 56.9 µM.
Take Lopinavir/ritonavir: the CC50 with LLC-PK1-EGFP cells and with VeroE6-EGFP cells was over 100 µM throughout.
As for `NC(=O)c1ncn([C@@H]2O[C@H](CO)[C@@H](O)[C@H]2O)n1` [Ribavirin], the CC50 is 20.2 µM in “in vitro [1]” and over 100 µM in the data set “in vitro [4]”. Besides, the concentration giving a half-maximal response (EC50) in the data set on SARS-CoV [3] was over 100 µM; with TGEV (Alphacoronavirus 1, 120 h), over 20.2 µM.
For the compound `Cc1cn([C@H]2C[C@H](N=[N+]=[N-])[C@@H](CO)O2)c(=O)[nH]c1=O` [AZT], the concentration for a half-maximal effect (EC50) with SARS-CoV [2] and in the data set on TGEV was over 100 µM in each case. Further, the CC50 with LLC-PK1-EGFP cells and with VeroE6-EGFP cells was over 100 µM in each case.
For the compound S-Nitroso-N-acetylpenicillamine, the “SI SARS CC50/EC50” value with SARS-CoV [2] is given as under 1.00. Further, the EC50 in the data set on SARS-CoV [2] was over 530 µM; in the data set with TGEV, over 312 µM. The figures for the CC50 in the data set on LLC-PK1-EGFP cells and in the data set on VeroE6-EGFP cells were 312 µM and 530 µM, respectively.
For dextran sulfate 5000 [DS5000], the concentration giving a half-maximal response (EC50) in the data set on SARS-CoV [2] and in the data set on TGEV was over 100 µM in each case. The CC50 with LLC-PK1-EGFP cells and with VeroE6-EGFP cells was over 100 µM in each case.
As to `CC1(C)[C@@H](O[C@H]2O[C@H](C(=O)O)[C@@H](O)[C@H](O)[C@H]2O[C@@H]2O[C@H](C(=O)O)[C@@H](O)[C@H](O)[C@H]2O)CC[C@]2(C)[C@H]3C(=O)C=C4[C@@H]5C[C@@](C)(C(=O)O)CC[C@]5(C)CC[C@@]4(C)[C@]3(C)CC[C@@H]12` [Glycirrhizin], the CC50 in the data set “in vitro [1]” and in the data set “in vitro [4]” was over 100 µM in each case. Further, the half-maximal effective concentration (EC50) in the data set with SARS-CoV [3] is over 100 µM; in the data set with TGEV (Alphacoronavirus 1, 120 h), over 100 µM.
